# Measured values as given in patent publication US20150276568A1 (priority 2012, published 2015).
# What was measured:
# [1] = assay type: physicochemical; details: extraction time varied 0-60 minutes; dihexyl ether; 900 rpm
# [2] = from reference [17]; cited from earlier work
Structure (SMILES),Extraction time for PALME system to enter equilibrium [1],Therapeutic range [2]
O=C(CCCN1CCC(O)(c2ccc(Cl)cc2)CC1)c1ccc(F)cc1 [Haloperidol],15 min,
CNCCC=C1c2ccccc2CCc2ccccc21 [Nortriptyline],30 min,
CCC(=O)C(CC(C)N(C)C)(c1ccccc1)c1ccccc1 (centres unmarked) [Methadone],15 min,100 to 500 ng/mL
CCOC(=O)C1(c2ccccc2)CCN(C)CC1 [Pethidine],,100 to 800 ng/mL
